Positions count from the first letter of the chain named. Read-outs that look alike come from different tables or passages of the source.
Experiments:
[1] = biological target: T1, CepR (Burkholderia multivorans, UniProt Q93PF7); assay: CepR antagonism in B. multivorans cepI::lacZ reporter (Bm-reporter), competition against C8-AHL; assay type: cell-based; conditions: for Inh% (100-Act%): screening conc. 100 μM; for IC50: read-out: IC50
T1 sequence (Q93PF7 1-239): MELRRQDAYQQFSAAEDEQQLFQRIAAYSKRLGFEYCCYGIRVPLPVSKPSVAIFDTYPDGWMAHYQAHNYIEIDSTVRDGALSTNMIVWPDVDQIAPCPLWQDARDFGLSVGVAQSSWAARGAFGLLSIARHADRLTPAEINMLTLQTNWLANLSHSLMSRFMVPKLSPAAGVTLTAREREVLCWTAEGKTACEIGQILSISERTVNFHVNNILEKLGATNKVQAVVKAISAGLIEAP
Description: (§1) We next sought to assess if the CepR modulators identified in the Ec-reporter maintained their activities in a member of the Bcc. For these studies, we generated a B. multivorans cepI::lacZ reporter organism (Bm-reporter) using standard allelic exchange methods (see Methods). Along with B. cenocepacia, B. multivorans is one of the most commonly isolated Bcc members[6],[44]. We note that small molecules must contend with a different cellular environment in the native organism relative to E. coli[48]; however, as both CepR and the cepI promoter are highly conserved among Bcc species (Fig. S3), we reasoned that the majority of compounds identified in the Ec-reporter (containing B. cenocepacia versions of the cepI promoter and the cepR gene) would maintain their relative activity profiles in CepR in B. multivorans. […] Similar to the Ec-reporter, CepR binding to the cepI promoter then induces β-galactosidase production, allowing for the quantitation of CepR activity. Using the Bm-reporter organism, we observed robust activity for CepR in response to C8-AHL (EC50 = 0.7 nM, Table 3).
(§2) The B. multivorans cepI::lacZ strain was used to obtain dose-response data for CepR in response to synthetic AHLs. Overnight cultures of B. multivorans cepI::lacZ were grown in LB medium at 37 °C with shaking (225 rpm). Aliquots (200 μL) of a 1:10 dilution of this overnight culture were plated into 96-well plates containing varying concentrations of compound, and then grown for 4 h at 37 °C with shaking (225 rpm). β-galactosidase production was measured as described above for E. coli, with the following changes: permeabilized cells were incubated at 25 °C with substrate CPRG for ~10 min until positive control wells developed a deep red color. For agonism assays, synthetic compound was screened alongside and compared to the native ligand, C8-AHL (100 μM). For antagonism assays, the concentration of native ligand utilized was 5 nM (approximately equal to twice its EC50 value).

[2] = biological target: T2, CepR (Burkholderia cenocepacia, UniProt B4EMD0); assay: CepR agonism in E. coli β-galactosidase reporter (Ec-reporter) JLD271 [pJN105-cepR + pSC11-cepI]; assay type: cell-based, B. cenocepacia; conditions: for Maximal Activation (%): activity for 100 μM C8-AHL set to 100%, error ±10%
T2 sequence (B4EMD0 1-239): T1 sequence (Q93PF7 1-239) with R5W, S51A, H69Q, S84N, Q95R, A97D
How it was run: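 E. coli JLD271 (ΔsdiA) carrying arabinose-inducible CepR (27 mM L-arabinose) and cepI-lacZ fusion, grown 4 h with compound; β-galactosidase measured by CPRG cleavage at 37 °C (~30 min), normalized to OD600. Agonism compared with C8-AHL at 100 μM; screen at 100 μM or solubility limit, then dose-response; ≥3 trials.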

[3] = biological target: T2, CepR; assay: CepR antagonism in E. coli β-galactosidase reporter (Ec-reporter), competition against C8-AHL; assay type: cell-based, B. cenocepacia
How it was run: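 CepR antagonism was measured in E. coli JLD271 (∆sdiA) carrying pJN105-cepR, which expresses B. cenocepacia CepR from an arabinose-inducible pBAD promoter, and pSC11-cepI, which fuses lacZ to the cepI promoter. Induced cells were grown 4 h with compound and 10 nM C8-AHL. β-Galactosidase activity was then read by CPRG cleavage at 37 °C after Z Buffer permeabilization.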

[4] = biological target: T1, CepR; assay: CepR agonism in B. multivorans cepI::lacZ reporter (Bm-reporter); assay type: cell-based; conditions: for EC50: read-out: EC50; for Maximal Activation (%): activity for 100 μM C8-AHL set to 100%, error ±10%
Description: as §1, §2

[5] = Table S2, Ec-reporter, screening conc. 100 μM
[6] = Table S3, Ec-reporter, screening conc. 100 μM, against 10 nM C8-AHL
[7] = Bm-reporter, against 5 nM C8-AHL
[8] = Ec-reporter, against 10 nM C8-AHL
[9] = Bm-reporter, agonism dose-response
[10] = Table S4, Bm-reporter, screening conc. 100 μM
[11] = Ec-reporter, agonism dose-response

Row | Compound | Act% [2, 5] [%] | Inh% (100-Act%) [3, 6] [%] | Maximal Inhibition (%) [1, 7] [%] | IC50 [3, 8] [nM] | Maximal Inhibition (%) [3, 8] [%] | Act% [4, 10] [%] | Maximal Activation (%) ([2]; Ec-reporter) | further results
1 | O=C(Cc1ccccc1[N+](=O)[O-])N[C@H]1CCOC1=O [Compound C15] | 1.4 | 79 |  |  |  |  |  | Inh% (100-Act%) ([1]; Table S5, Bm-reporter): 95%
2 | O=C(Cc1ccc(Br)cc1)N[C@H]1CCOC1=O [Control 7, reference compound] | 0.2 | 89 |  |  |  |  |  | Inh% (100-Act%) ([1]; Table S5, Bm-reporter): 85%
3 | CCCCCCCCCC(=O)CC(=O)Nc1ccccc1O [Control 14, reference compound] | 30 | 30 |  |  |  |  |  | Inh% (100-Act%) ([1]; Table S5, Bm-reporter): 25%
4 | CSc1cccc(CC(=O)NC2CCOC2=O)c1 (centres unmarked) [Compound E7] | 5.9 |  | 97 | 3100 | 76 |  |  | CepR antagonism in words ([1]; Bm-reporter): bring reporter activity down to nearly zero; IC50 [1, 7]: 4000 nM
5 | O=C(Cc1ccc([N+](=O)[O-])cc1)N[C@H]1CCOC1=O [Compound C13] | 1.1 | 79 | 96 |  |  |  |  | CepR antagonism in words ([1]; Bm-reporter): bring reporter activity down to nearly zero; IC50 [1, 7]: 3600 nM; IC50 ([3]; Table S3, Ec-reporter): 6700 nM
6 | O=C(CCCOc1ccc(Cl)cc1)NC1CCOC1=O (centres unmarked) [CL, reference compound] | 110 | -20 |  |  |  | 80 |  | EC50 [4, 9]: 940 nM; Maximal Activation (%) ([4]; Bm-reporter): 80%; EC50 ([2]; Table S2, Ec-reporter): 12 nM
7 | O=C(Cc1ccccc1Br)N[C@H]1CCOC1=O [Compound C9] | 0.3 | 52 |  |  |  |  |  | Inh% (100-Act%) ([1]; Table S5, Bm-reporter): 99%; IC50 ([3]; Table S3, Ec-reporter): 40000 nM
8 | O=C(Cc1ccccc1I)N[C@H]1CCOC1=O [Compound C12] | -0.4 | 72 |  |  |  |  |  | Inh% (100-Act%) ([1]; Table S5, Bm-reporter): 104%; IC50 ([3]; Table S3, Ec-reporter): 22000 nM
9 | O=C(CCc1ccc(F)cc1)N[C@H]1CCOC1=O [Compound E29] | 92 | -10 |  |  |  | 94 | 92 | EC50 [2, 11]: 2.3 nM
10 | O=C(Cc1cccc(Cl)c1)N[C@H]1CCOC1=O [Compound C6] | 3.2 |  |  | 39000 | 66 |  |  | Inh% (100-Act%) ([1]; Table S5, Bm-reporter): 98%
11 | Cc1ccc(CCC(=O)N[C@H]2CCOC2=O)cc1 [Compound E26] | 96 | -10 |  |  |  | 96 | 96 | Maximal Activation (%) ([4]; Bm-reporter): 96%; EC50 ([4]; Table S4, Bm-reporter): 0.77 nM; EC50 [2, 11]: 5.9 nM
12 | O=C(CCc1ccc2c(c1)OCO2)N[C@H]1CCOC1=O [Compound E39] | 103 | -40 |  |  |  | 84 | 100 | EC50 ([4]; Table S4, Bm-reporter): 9.1 nM; EC50 [2, 11]: 1.4 nM
13 | CCCCOc1ccc(C(=O)N[C@H]2CCOC2=O)cc1 [Compound R4] |  |  |  |  |  |  |  | Act% ([4]; Table S4, Bm-reporter, screening conc. 25 μM): 58%; EC50 ([2]; Table S2, Ec-reporter): 86 nM; Act% ([2]; Table S2, Ec-reporter, screening conc. 25 μM): 84%; Inh% (100-Act%) ([3]; Table S3, Ec-reporter, screening conc. 25 μM): -30%
14 | O=C(COc1cccc([N+](=O)[O-])c1)N[C@H]1CCOC1=O [Compound E25] | 25 |  | 83 | 3000 | 70 |  |  | IC50 ([1]; Table S5, Bm-reporter): ≥ 3300 nM
15 | O=C(CCc1cccc(C(F)(F)F)c1)N[C@H]1CCOC1=O [Compound E36] | 92 | -10 |  |  |  | 103 | 92 | EC50 [4, 9]: ≥ 3900 nM; Maximal Activation (%) ([4]; Bm-reporter): 100%; EC50 [2, 11]: 26 nM
16 | O=C(CCc1ccc(Br)cc1)N[C@H]1CCOC1=O [Compound B7] | 97 | -50 |  |  |  | 82 | 97 | EC50 [4, 9]: 0.24 nM; Maximal Activation (%) ([4]; Bm-reporter): 82%; EC50 [2, 11]: 0.29 nM; EC50 (nM) [2, 11]: sub-nanomolar
17 | COc1ccc(CCC(=O)N[C@H]2CCOC2=O)cc1 [Compound E28] | 92 | -30 |  |  |  | 90 | 92 | EC50 ([4]; Table S4, Bm-reporter): 52 nM; EC50 [2, 11]: 3.8 nM
18 | N#Cc1cccc(CC(=O)N[C@H]2CCOC2=O)c1 [Compound E5] | 4.9 |  | 43 | 2700 | 81 |  |  | 
19 | CCCC(=O)CC(=O)N[C@H]1CCOC1=O [3’O-C6-AHL, reference compound] |  |  | 85 |  |  |  |  | IC50 [1, 7]: 800 nM
20 | CCCCCCCCCC(=O)CC(=O)N[C@H]1CCOC1=O [3’O-C12-AHL, reference compound] | 98 | -40 |  |  |  | 80 |  | 
21 | CCCC(=O)N[C@H]1CCOC1=O [Compound C4-AHL, butanoyl L-homoserine lactone, reference compound] | 23 |  | 76 | 20000 | 58 |  | 23 | IC50 [1, 7]: 250 nM
22 | O=C(Cc1cccc2ccccc12)N[C@H]1CCOC1=O [Compound E13] | 2.5 | 50 | 13 |  |  |  |  | IC50 ([3]; Table S3, Ec-reporter): 4900 nM
23 | O=C(Cc1cccc([N+](=O)[O-])c1)NC1CCOC1=O (centres unmarked) [Compound C14] | 16 |  | 54 | 1400 | 46 |  |  | IC50 [1, 7]: 620 nM
24 | CCCCCCS(=O)(=O)N[C@H]1CCOC1=O [Compound A11] | -5.0 |  |  |  | 78 |  | −5.0 | Inh% (100-Act%) ([1]; Table S5, Bm-reporter): 84%; CepR agonism in words ([2]; Ec-reporter): failed to activate CepR
25 | O=C(N[C@H]1CCOC1=O)C1CCCC1 [Compound S4] | 0.2 |  | 93 | 32000 | 72 |  |  | IC50 [1, 7]: 3700 nM
26 | O=C(Cc1ccccc1Cl)N[C@H]1CCOC1=O [Compound C7] | 0.3 |  |  | 5900 | 89 |  |  | Inh% (100-Act%) ([1]; Table S5, Bm-reporter): 95%
27 | O=C(CCc1cccc(I)c1)N[C@H]1CCOC1=O [Compound E33] | 92 | -20 |  |  |  | 94 | 92 | EC50 [4, 9]: 0.15 nM; Maximal Activation (%) ([4]; Bm-reporter): 94%; EC50 [2, 11]: 0.95 nM; EC50 (nM) [2, 11]: sub-nanomolar
28 | CCCOc1ccc(C(=O)N[C@H]2CCOC2=O)cc1 [Compound R2] | 98 | -10 |  |  |  | 92 |  | EC50 ([2]; Table S2, Ec-reporter): 38 nM
29 | CCCCCC(=O)CC(=O)N[C@H]1CCOC1=O [3’O-C8-AHL, reference compound] | 86 | 3.0 |  | 16000 | 71 | 72 | 86 | EC50 [4, 9]: ≥ 3500 nM; Maximal Activation (%) ([4]; Bm-reporter): 72%; EC50 [2, 11]: 1200 nM

From publication PMC6748986, “Potent modulation of the CepR quorum sensing receptor and virulence in a Burkholderia cepacia complex member using non-native lactone ligands” (Scientific Reports, 2019)
